Consider 1 sequence from ChEMBL document CHEMBL1909046, “DrugMatrix in vitro pharmacology data”.

One assay concerns the target Insulin receptor (Rattus norvegicus, UniProt P15127). The assay is classed as cell membranes, Wistar, Liver, Membrane. Also: in other assays of this panel Not Active means under 50% inhibition at 10 µM.
Assay [1] has as its target Mitogen-activated protein kinase 3 (Homo sapiens, UniProt P27361). The experiment in a line: DRUGMATRIX: Protein Serine/Threonine Kinase, ERK1 enzyme inhibition (substrate: Myelin Basic Protein). Also noted: species or system Escherichia coli. To be noted: Not Active = under 50% inhibition at 10 µM.
A further assay has as its target Acetylcholinesterase (Homo sapiens, UniProt P22303). The experiment in a line: DRUGMATRIX: Acetylcholinesterase enzyme inhibition (substrate: acetylthiocholine). The settings on record: hek293; Not Active = under 50% inhibition at 10 µM. The format is cell-based, HEK293.
Assay [2] concerns the target T1, Cysteinyl leukotriene receptor 1 (Homo sapiens, UniProt Q9Y271). Also: in other assays of this panel Not Active means under 50% inhibition at 10 µM.
T1 sequence (Q9Y271 whole entry): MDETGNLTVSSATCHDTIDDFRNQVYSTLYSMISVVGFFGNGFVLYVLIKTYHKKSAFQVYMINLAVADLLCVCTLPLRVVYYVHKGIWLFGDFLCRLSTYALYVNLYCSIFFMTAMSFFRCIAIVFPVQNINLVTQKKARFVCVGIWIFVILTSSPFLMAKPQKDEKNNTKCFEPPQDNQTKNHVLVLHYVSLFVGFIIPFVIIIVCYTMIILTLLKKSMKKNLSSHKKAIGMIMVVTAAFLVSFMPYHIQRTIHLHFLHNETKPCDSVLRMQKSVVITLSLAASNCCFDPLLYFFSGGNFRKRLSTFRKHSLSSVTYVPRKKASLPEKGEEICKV
The format is cell membranes, CHO-K1, Membrane. To be noted: cho-k1.

For another assay, the target named is Vasopressin V1a receptor (Homo sapiens, UniProt P37288). The assay is classed as cell membranes, Membrane. To be noted: hek293. Also: in other assays of this panel Not Active means under 50% inhibition at 10 µM.
Assay [3] addresses T2, Neuropeptide Y receptor type 1 (Homo sapiens, UniProt P25929).
T2 sequence (P25929 whole entry): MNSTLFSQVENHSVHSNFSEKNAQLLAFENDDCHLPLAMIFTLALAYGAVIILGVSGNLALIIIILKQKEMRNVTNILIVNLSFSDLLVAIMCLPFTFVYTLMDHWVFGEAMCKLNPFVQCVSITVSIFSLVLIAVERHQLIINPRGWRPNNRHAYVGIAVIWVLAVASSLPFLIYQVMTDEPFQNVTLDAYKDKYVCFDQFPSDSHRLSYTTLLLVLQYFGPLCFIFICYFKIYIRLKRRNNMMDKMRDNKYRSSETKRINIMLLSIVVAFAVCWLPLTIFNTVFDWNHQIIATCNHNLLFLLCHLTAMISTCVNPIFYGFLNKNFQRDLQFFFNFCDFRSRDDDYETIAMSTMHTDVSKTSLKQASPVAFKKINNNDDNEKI
The assay is classed as cell membranes, Membrane. The settings on record: sk-n-mc.

Assay [4] concerns the target T3, Alpha-1A adrenergic receptor (Rattus norvegicus, UniProt P43140).
T3 sequence (P43140 whole entry): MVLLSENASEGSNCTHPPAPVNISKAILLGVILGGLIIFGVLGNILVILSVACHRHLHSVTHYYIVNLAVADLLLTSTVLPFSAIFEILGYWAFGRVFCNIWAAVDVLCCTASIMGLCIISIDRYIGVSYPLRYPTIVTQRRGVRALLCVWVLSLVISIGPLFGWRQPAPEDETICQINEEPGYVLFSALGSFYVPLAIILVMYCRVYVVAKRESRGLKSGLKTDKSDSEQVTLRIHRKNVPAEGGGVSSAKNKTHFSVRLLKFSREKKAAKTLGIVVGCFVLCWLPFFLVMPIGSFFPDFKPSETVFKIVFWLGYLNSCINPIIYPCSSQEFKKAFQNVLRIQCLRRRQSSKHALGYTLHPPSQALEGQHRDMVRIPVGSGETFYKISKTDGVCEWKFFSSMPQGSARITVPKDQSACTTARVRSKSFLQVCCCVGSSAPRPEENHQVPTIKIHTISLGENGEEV
The experiment in a line: DRUGMATRIX: Alpha-1A adrenergic receptor radioligand binding (ligand: prazosin). The assay is classed as cell membranes, Wistar, Submaxillary gland, Membrane. To be noted: Not Active = under 50% inhibition at 10 µM.

For assay [5], the target named is T4, 5-hydroxytryptamine receptor 1A (Rattus norvegicus, UniProt P19327). Also: in other assays of this panel Not Active means under 50% inhibition at 10 µM.
T4 sequence (P19327 whole entry): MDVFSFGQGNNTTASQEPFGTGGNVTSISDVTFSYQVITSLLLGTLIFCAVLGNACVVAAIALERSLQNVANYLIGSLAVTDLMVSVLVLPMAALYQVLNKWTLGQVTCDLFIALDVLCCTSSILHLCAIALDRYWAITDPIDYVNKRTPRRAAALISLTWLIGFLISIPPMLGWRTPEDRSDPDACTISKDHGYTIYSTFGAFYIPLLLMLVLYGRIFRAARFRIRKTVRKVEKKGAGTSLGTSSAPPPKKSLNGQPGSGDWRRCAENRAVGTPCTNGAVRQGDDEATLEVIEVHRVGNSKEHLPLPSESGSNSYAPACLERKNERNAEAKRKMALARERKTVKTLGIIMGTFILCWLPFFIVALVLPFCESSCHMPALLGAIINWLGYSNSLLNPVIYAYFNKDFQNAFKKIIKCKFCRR
The format is cell membranes, CHO-K1, Membrane. The settings on record: cho-k1.

For the next assay, the target named is T5, Adenosine receptor A3 (Homo sapiens, UniProt P0DMS8).
T5 sequence (P0DMS8 whole entry): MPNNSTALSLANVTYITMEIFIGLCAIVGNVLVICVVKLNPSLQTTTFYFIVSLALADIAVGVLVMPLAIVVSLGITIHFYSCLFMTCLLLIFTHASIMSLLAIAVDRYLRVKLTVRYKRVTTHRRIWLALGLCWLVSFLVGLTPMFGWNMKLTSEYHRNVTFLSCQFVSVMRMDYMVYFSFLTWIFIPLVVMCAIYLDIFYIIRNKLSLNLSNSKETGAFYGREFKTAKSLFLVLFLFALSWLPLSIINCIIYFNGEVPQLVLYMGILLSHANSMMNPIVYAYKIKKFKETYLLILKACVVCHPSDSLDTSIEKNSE
The format is cell membranes, CHO-K1, Membrane. The settings on record: cho-k1.

Chain of Insulin receptor (P15127 27-759 limits assumed): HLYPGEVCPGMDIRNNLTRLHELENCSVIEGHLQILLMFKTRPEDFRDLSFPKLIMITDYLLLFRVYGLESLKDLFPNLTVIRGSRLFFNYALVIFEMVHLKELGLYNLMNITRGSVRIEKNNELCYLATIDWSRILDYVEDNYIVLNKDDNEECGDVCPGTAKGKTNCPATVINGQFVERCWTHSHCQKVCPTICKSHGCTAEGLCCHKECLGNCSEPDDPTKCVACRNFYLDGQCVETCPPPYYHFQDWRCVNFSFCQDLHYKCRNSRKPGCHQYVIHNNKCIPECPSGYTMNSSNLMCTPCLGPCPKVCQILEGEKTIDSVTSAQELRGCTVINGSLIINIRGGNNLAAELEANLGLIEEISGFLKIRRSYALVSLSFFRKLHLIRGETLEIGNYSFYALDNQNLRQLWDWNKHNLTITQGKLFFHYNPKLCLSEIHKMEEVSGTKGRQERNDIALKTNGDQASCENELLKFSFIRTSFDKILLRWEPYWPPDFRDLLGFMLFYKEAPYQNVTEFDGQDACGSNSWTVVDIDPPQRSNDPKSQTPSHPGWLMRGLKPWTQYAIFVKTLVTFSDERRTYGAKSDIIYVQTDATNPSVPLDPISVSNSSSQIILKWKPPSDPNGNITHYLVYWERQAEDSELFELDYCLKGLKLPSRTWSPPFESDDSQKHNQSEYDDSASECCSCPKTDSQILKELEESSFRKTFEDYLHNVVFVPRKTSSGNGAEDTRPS
Chain of Insulin receptor (P15127 764-1383 limits assumed): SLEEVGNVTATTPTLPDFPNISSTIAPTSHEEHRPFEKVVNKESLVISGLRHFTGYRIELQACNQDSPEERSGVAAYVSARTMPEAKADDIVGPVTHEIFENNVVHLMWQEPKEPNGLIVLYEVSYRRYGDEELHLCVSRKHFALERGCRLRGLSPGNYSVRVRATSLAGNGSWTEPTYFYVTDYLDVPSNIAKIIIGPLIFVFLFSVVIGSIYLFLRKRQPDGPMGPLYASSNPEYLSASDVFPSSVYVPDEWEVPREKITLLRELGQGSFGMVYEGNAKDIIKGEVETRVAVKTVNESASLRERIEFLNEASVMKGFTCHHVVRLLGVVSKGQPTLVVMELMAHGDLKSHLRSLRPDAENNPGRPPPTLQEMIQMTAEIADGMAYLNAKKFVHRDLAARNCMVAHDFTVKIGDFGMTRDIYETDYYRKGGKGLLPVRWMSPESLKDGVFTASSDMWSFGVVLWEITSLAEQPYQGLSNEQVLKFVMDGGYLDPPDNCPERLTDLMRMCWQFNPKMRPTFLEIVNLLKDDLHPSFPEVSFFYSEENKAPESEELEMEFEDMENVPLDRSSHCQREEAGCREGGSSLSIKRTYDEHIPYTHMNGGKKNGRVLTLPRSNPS
Chain of Mitogen-activated protein kinase 3 (P27361 whole entry): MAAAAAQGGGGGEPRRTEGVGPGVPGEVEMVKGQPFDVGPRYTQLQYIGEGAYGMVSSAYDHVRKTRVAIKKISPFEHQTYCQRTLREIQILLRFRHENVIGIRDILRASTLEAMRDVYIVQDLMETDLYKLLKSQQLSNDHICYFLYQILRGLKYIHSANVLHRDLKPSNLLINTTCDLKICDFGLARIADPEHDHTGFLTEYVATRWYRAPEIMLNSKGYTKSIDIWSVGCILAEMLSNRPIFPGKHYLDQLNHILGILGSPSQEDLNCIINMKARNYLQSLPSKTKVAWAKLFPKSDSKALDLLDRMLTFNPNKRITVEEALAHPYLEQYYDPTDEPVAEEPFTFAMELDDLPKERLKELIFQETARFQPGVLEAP
Chain of Vasopressin V1a receptor (P37288 whole entry): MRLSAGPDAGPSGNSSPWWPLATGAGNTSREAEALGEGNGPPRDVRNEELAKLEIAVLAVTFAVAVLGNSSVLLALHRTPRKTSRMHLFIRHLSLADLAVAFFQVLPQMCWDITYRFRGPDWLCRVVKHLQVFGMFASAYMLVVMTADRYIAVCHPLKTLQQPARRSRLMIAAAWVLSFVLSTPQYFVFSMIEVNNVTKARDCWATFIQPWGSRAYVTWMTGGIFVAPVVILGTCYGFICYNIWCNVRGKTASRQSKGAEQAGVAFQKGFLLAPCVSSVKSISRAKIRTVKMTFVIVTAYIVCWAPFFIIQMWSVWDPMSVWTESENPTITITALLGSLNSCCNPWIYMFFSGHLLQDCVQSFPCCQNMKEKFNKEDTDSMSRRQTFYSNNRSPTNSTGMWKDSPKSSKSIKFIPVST
Chain of Acetylcholinesterase (P22303 whole entry): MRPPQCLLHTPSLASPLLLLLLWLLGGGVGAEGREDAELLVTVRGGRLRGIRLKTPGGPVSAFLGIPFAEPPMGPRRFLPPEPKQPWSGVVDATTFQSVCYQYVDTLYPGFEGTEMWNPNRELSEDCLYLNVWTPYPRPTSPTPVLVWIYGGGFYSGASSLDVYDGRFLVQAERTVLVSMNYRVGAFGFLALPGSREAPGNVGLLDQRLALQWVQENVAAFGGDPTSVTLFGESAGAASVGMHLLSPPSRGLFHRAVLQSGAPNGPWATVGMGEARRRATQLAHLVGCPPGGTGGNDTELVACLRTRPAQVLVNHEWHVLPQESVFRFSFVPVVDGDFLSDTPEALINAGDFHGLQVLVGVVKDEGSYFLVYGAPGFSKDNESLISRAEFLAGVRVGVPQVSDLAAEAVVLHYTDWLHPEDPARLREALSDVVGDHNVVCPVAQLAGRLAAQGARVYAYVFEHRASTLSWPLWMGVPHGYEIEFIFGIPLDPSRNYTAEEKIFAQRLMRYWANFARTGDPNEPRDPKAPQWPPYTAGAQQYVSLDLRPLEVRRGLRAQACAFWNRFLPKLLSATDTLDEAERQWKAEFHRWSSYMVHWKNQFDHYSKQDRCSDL

With IVERMECTIN, the IC50 entry (against Insulin receptor; in assay [1]; against Acetylcholinesterase; in assay [2]; at Vasopressin V1a receptor; in [3]) was “Not Active” throughout. The figures for the IC50 result (in assay [4]; in assay [5]; at Adenosine receptor A3 (read-out: IC50)) were “Not Active”, “Not Active” and 512 nM, respectively. Further, the Ki entry (on Insulin receptor; in [1]; at Acetylcholinesterase; in [2]; at Vasopressin V1a receptor; in assay [3]) was “Not Active” throughout. Besides, the Ki entry in assay [4] is “Not Active”; in assay [5], “Not Active”; on Adenosine receptor A3 (read-out: Ki), 289 nM.
